Results from US20060134095A1, “Antioxidative composition and composition for external use” (priority 2003, published 2006).

What was measured:
[1] = hydroxy radical scavenging activity by ESR spin trapping (H2O2/FeSO4, DMPO); details: for Remaining amount of hydroxyl radicals: relative signal intensity (DMPO-OH/MnO); for hydroxyl radical scavenging activity (in words) / hydroxyl radical scavenging activity compared with pro-vitamin C (A2P: ascorbic acid-2-phosphate Na): ESR spin trapping, Table 2
Method: (1) With regard to the foregoing samples, according to the direction in the following Table 1, the sample was put into a 1.5 ml Eppendorf tube, H2O2 was added, and reaction was carried out for 30 seconds after the addition for H2O2. Subsequently, the measurement was carried out by ESR, and the hydroxy radical scavenging activities of the fullerenes measured by the ESR spin trapping method were evaluated.
For preparation of the reagents, milli Q was used. As for the ESR apparatus, JES-FR30 (JEOL Co.) was used, and measurement was carried out using a high sensitive ESR water-soluble flat cell (LABOTEC Co.). The measurement conditions of ESR were as follows. Power: 4 mW, Field: 336±5, Sweep Time: 1 min., Modulation Width: 0.32 mT, Amp: 400, Response Time: 0.3 sec. Evaluation was performed with the ratio of the signal amplitude of OH to that of the paramagnetic internal standard, MnO.

[2] = superoxide scavenging activity by ESR spin trapping (hypoxanthine/xanthine oxidase, DMPO)
Method: (2) In addition, according to the direction in the following Table 3, each of the samples was put into a 1.5 ml Eppendorf tube, XOD was added, and reaction was carried out for 30 seconds. Subsequently, the measurement was carried out by ESR, whereby the superoxide scavenging activities measured by ESR spin trapping were evaluated. The measuring method was according to the case of the hydroxyl radical.
The measurement conditions of ESR were as follows. Power: 4 mW, Field: 336±5, Sweep Time: 1 min., Modulation Width: 0.1 mT, Amp: 790, Response Time: 0.3 sec. Evaluation was performed with the ratio of the signal amplitude of O2 to that of the paramagnetic internal standard, MnO.

[3] = system: human skin epidermal keratinocytes; test: antioxidative effect against UVB in keratinocytes (CDCFH-DA fluorescence, intracellular peroxide/hydrogen peroxide); type: cell-based; details: UVB 40 mJ/cm^2, samples added before irradiation, FIG. 1
Method: (3) With regard to various samples, their antioxidative effects against UVB were evaluated by using keratinocytes, a human major cell type.
The results are shown in Pig. 1.

| Remaining amount of hydroxyl radicals ([1]; sample 9.26 μM, solubilized in 70% ethanol, diluted to 0.2%, control 3.0) | Compound | Remaining amount of hydroxyl radicals ([1]; ethanol, concentration not given, control (Milli-Q water) 3.0) | Remaining amount of superoxide anion radical ([2]; relative signal intensity (DMPO-OOH/MnO), ethanol, concentration not given, control (Milli-Q water) 3.0) | peroxide/hydrogen peroxide scavenging activity in skin cells (antioxidative effect) compared with pro-vitamin C (Asc2P-Na) [3] | hydroxyl radical scavenging activity (in words) [1] | hydroxyl radical scavenging activity compared with pro-vitamin C (A2P: ascorbic acid-2-phosphate Na) [1] | superoxide anion radical scavenging activity compared with pro-vitamin C (A2P) ([2]; ESR spin trapping, Table 4) | radical scavenging activity in the superoxide test (in words; printed as hydroxyl radical scavenging activities) ([2]; ESR spin trapping, Table 4) |
| --- | --- | --- | --- | --- | --- | --- | --- | --- |
|  | CCO [Ethanol, reference compound] | 1.3 | 7.5 |  |  |  |  |  |
| 0.6 | Hydroxylated fullerene [Sample F6] |  |  | equal | significant | slightly superior to or equal to | equal to or more than |  |
|  | Fullerene modified with PEG [Sample F3] |  |  |  | significant | slightly superior to or equal to | significantly superior | significant |
